Tests used:
DC-3F/AD = experiment: Cytotoxicity: reversal of resistance to actinomycin D (reversion factor), line DC-3F/AD; assay type: cell-based, Chinese hamster
Experimental: (§1) The parameter measured is the cytotoxicity of the antitumour drug, quantified in the absence and in the presence of the reversing compound. Two resistant cell lines were used: 1 Chinese hamster lung line, DC-3F/AD, the resistance of which was induced by actinomycin D. […] The compounds tested for their capacity to reverse the resistance are added at the same time as the cytotoxic agent. The cells are then incubated for 4 days.

KB-A1 [1] = experiment: Cytotoxicity: reversal of resistance to adriamycin (reversion factor), line KB-A1; assay type: cell-based, Human
Experimental: as §1, with “compound.” for “compound. Two resistant cell lines were used: 1 Chinese hamster lung line, DC-3F/AD, the resistance of which was induced by actinomycin D.”

KB-A1 [2] = experiment: Flow cytometry: intracellular accumulation of ADR, line KB-A1; assay type: cell-based, Human; conditions: ADR 50 μM, 5 hours
Experimental: Also measured was the effect of the compounds on the intracellular concentration of adriamycin. […] By measuring that fluorescence, it is thus possible to obtain a relative measurement of the intracellular concentration of ADR. […] The cells (5×10^5 per ml) were exposed simultaneously to ADR at a fixed concentration (50 μM) and to the tested compounds at various concentrations. After 5 hours' incubation, the intracellular accumulation of ADR was evaluated by FCM. […] The results were presented in the form of linear histograms of the intracellular ADR fluorescence. Expression of the results: for each of the histograms the mean fluorescence per channel (MEAN) was determined by the computer of the apparatus. For all experiments: a negative control (cells without ADR) fixed the autofluorescence threshold. a positive control (cells with ADR) determined the MEAN value=MN1. the "test" tubes (cells with ADR and with compound) were used to determine, for each of the compounds and at each of the concentrations, the MEAN values=MN2. The results are expressed in the form of variations from the mean fluorescence obtained for each of the "test" tubes (MN2) in relation to the mean fluorescence obtained with the positive control (MN1): VAR-MEAN=MN2-MN1. The measured parameter is thus the increase in ADR fluorescence in the presence of the tested compounds.

P 388/VCR = experiment: In vivo increase in antitumour activity of vincristine, resistant line P 388/VCR; design: species or system murine leukaemia in female B6D2F1 mice
Source text: This study was completed by an in vivo study, using a murine leukaemia resistant to vincristine (P 388/VCR) and using the compounds of the present invention in association with vincristine.
(§2) The sensitive parent line P 388 (murine leukaemia) and the sub-line resistant to vincristine, P 388/VCR, were supplied by NCI (Frederick, USA). The tumour cells (10^6 cells) were inoculated on day 0 into the indraperitoneal cavity of female B6D2F1 mice (Iffa Credo, France) weighing from 18 to 20 g (groups of 8 to 10 animals).
Every day for 4 days, starting from day 1, the animals received:
an administration of 25 to 150 mg/kg by i.p., p.o. or i.v. route of the compound of the present invention to be tested, as mentioned in the table 4a; then
(§3) 30 to 60 minutes later, an administration by the i.p. route of 0.25 mg/kg of vincristine (used as a reference antitumour agent).
(§4) The antitumour activity is expressed as follows: [formula]
(§5) The values are mean values obtained in independent experiments (# sem when n is greater than or equal to 3).

P 388 = experiment: In vivo increase in antitumour activity of vincristine, sensitive line P388; design: species or system murine leukaemia in female B6D2F1 mice
Experimental: as §2
Every day for 4 days, starting from day 1, the animals received: […]
as §3, §4, §5
Using the sensitive line (P388) the tested compounds of the invention increase considerably the sensitivity of the cells to vincristine.

[3] = with VCR […] i.p., compound 50 mg/kg i.p.
[4] = with VCR […] i.p., compound 150 mg/kg p.o.
[5] = VCR 0, compound 12.5 mg/kg p.o.
[6] = with VCR […] i.p., compound 12.5 mg/kg p.o.

Row | Compound | reversion factor (RF) (DC-3F/AD; compound 1 μM) | reversion factor (RF) (DC-3F/AD; compound 5 μM) | reversion factor (RF) (KB-A1 [1]; compound 1 μM) | reversion factor (RF) (KB-A1 [1]; compound 5 μM) | increase in the ADR fluorescence (VAR-MEAN) (KB-A1 [2]; compound 1 μM) | increase in the ADR fluorescence (VAR-MEAN) (KB-A1 [2]; compound 5 μM) | increase in the ADR fluorescence (VAR-MEAN) (KB-A1 [2]; compound […]) | T/C (P 388/VCR; VCR 0, compound 50 mg/kg i.p.) [%] | T/C (P 388/VCR; VCR 0, compound 150 mg/kg p.o.) [%] | T/C (P 388/VCR; [3]) [%] | T/C (P 388/VCR; [4]) [%] | other results
1 | CCOC(=O)C1=C(COCCOCCNCc2ccc(F)cc2)NC(C)=C(C(=O)OC)C1c1cccc(Cl)c1Cl (stereo not drawn) [Example 4, d-2-{[2-(2-(N-p-fluorobenzylamino)ethoxy)ethoxy]methyl}-4-(2,3-dichlorophenyl)-3-ethoxycarbonyl-5-methoxycarbonyl-6-methyl-1,4-dihydropyridine] | 23.0 | 3,962.3 | 26.0 | 473.7 | 2.0 | 18.6 | 7.0 | 100 | 110 | 176 | 181 | –
2 | CCOC(=O)C1=C(COCCOCCNCc2ccc(C#N)cc2)NC(C)=C(C(=O)OC)C1c1cccc(Cl)c1Cl (stereo not drawn) [Example 8, d-2-{[2-(2-(N-p-cyanobenzylamino)ethoxy)ethoxy]methyl}-4(2,3-dichlorophenyl)-3-ethoxycarbonyl-5-methoxycarbonyl-6-methyl-1,4-dihydropyridine] | 11.4 | 1,319.9 | 6.9 | 136.0 | 2.0 | 24.2 | 9.4 | – | – | – | – | Survivors on day 60 (P 388; VCR 0, compound 150 mg/kg p.o.): 0/8; T/C (P 388; VCR 0, compound 150 mg/kg p.o.): 106%; Survivors on day 60 (P 388; [4]): 2/8; T/C (P 388; [4]): 294%
3 | CCOC(=O)C1=C(COCCOCCNCc2cccc3ccccc23)NC(C)=C(C(=O)OC)C1c1cccc(Cl)c1Cl (stereo not drawn) [Example 11, d-2-{[2-(2-(N-naphth-1-ylmethylamino)ethoxy)ethoxy]methyl}-4-(2,3-dichlorophenyl)-3-ethoxycarbonyl-5-methoxycarbonyl-6-methyl-1,4-dihydropyridine] | 1.0 | 2,442.4 | 1.7 | 336.0 | 0.2 | 31.0 | 18.2 | 100 | 99 | 146 | 177 | –
4 | CCOC(=O)C1=C(COCCOCCNCc2ccncc2)NC(C)=C(C(=O)OC)C1c1cccc(Cl)c1Cl (stereo not drawn) [Example 15, d-2-{[2-(2-(N-pyrid-4-ylmethylamino)ethoxy)ethoxy]methyl}-4-(2,3-dichlorophenyl)-3-ethoxycarbonyl-5-methoxycarbonyl-6-methyl-1,4-dihydropyridine] | 301.4 | 6,510.3 | 12.1 | 281.9 | 7.0 | 38.6 | 16.1 | – | – | – | – | T/C (P 388/VCR; VCR 0, compound 25 mg/kg i.p.): 109%; T/C (P 388/VCR; VCR 0, compound 25 mg/kg i.v.): 94%; T/C (P 388/VCR; VCR 0, compound 25 mg/kg p.o.): 112%; T/C (P 388/VCR; with VCR […] i.p., compound 25 mg/kg i.p.): 262%; T/C (P 388/VCR; with VCR […] i.p., compound 25 mg/kg i.v.): 186%; T/C (P 388/VCR; with VCR […] i.p., compound 25 mg/kg p.o.): 180%; Survivors on day 60 (P 388; [5]): 0/8; T/C (P 388; [5]): 101%; Survivors on day 60 (P 388; [6]): 3/8; T/C (P 388; [6]): 540%
5 | CCOC(=O)C1=C(COCCOCCNC2c3ccccc3CCc3ccccc32)NC(C)=C(C(=O)OC)C1c1cccc(Cl)c1Cl (stereo not drawn) [Example 28, d-2-{[2-(2-[N-dibenzo[a,d]cyclohept-5-ylamino)ethoxy)ethoxy]methyl}-4-(2,3-dichlorophenyl)-3-ethoxycarbonyl-5-methoxycarbonyl-6-methyl-1,4-dihydropyridine] | 1.4 | 447.3 | – | – | – | – | – | 107 | 99 | 180 | 207 | –

Reference: patent US5389644A, “1,4-dihydropyridine compounds” (priority 1992, dated 1995)
